# Experimental data reported in US20110250184A1, “METHODS FOR DETERMINING EFFICACY OF A THERAPEUTIC REGIMEN AGAINST DELETERIOUS EFFECTS OF CYTOTOXIC AGENTS IN HUMAN” (priority 2008, published 2011).
# Tested on: human bone marrow cells
# Assay: In vitro radiation protection of human bone marrow cells (methocult CFU)
# Type: cell-based
# Protocol: FIG. 3. In vitro radiation protection of human bone marrow cells. Human bone marrow cells were treated with increasing concentrations of ON 01210.Na for 3 hours, and then irradiated with increasing doses of ionizing radiation. The cells were plated into methocult and the total number of CFUs was determined 14 days later.
# Radiation protection assays were then performed (FIG. 3). Cells were treated with ON 01210.Na for 3 hours, irradiated, and plated in methocult. The total number of colony forming units was determined 14 days later. […] This compared very favorably when analyzed against protection studies using amifostine as a positive control.
# Human bone marrow cells were treated with increasing concentrations of ON 01210.Na for 3 hours, and then irradiated with increasing doses of ionizing radiation. The cells were plated into methocult and the total number of CFUs was determined 14 days later.
# When we plotted the survival curve at the optimal concentration of ON 01210.Na (FIG. 3C) we were able to calculate a dose reduction factor (DRF) of 1.6. We also tested the radiation protection activity of amifostine. Amifostine concentrations were selected that closely mimicked the therapeutic plasma concentrations. […] The calculated DRF value of 1.5 was determined from these experiments.
compound,measurement,setting,value
"NCCCNCCSP(=O)(O)O [amifostine, reference compound]",optimal concentration for radiation protection,amifostine,0.25 mM
same,dose reduction factor (DRF),amifostine 0.25 mM (optimal),1.5
same,range of concentrations that protected cells,data not shown,narrow range of concentrations
